Converted amounts (≈) assume the structure as drawn. Like-named read-outs stand apart in the source and are kept apart here.
Legend:
Format in all cases: cell-based
[1] = tested on: SA 158 (Staphylococcus aureus 158); assay: MIC; settings: SA 158, read-out: MIC
Protocol: (§1) The strains included Staphylococcus aureus, Methicillin Resistant (ATCC 33591), Methicillin-Resistant Staphylococcus aureus USA300, Staphylococcus aureus 158, Staphylococcus aureus 22, Staphylococcus aureus 2, Staphylococcus aureus (ATCC 29213), and Staphylococcus aureus 182.
(§2) A series of compounds were evaluated for their activity against drug resistant S. aureus, including MSSA and MRSA strains.

[2] = tested on: SA 182 (Staphylococcus aureus 182); assay: MIC; settings: SA 182, read-out: MIC
Protocol: as §1, §2

[3] = tested on: SA 2 (Staphylococcus aureus 2); assay: MIC; settings: SA 2, read-out: MIC
Protocol: as §1, §2

[4] = tested on: SA 22 (Staphylococcus aureus 22); assay: MIC; settings: SA 22, read-out: MIC
Protocol: as §1, §2

[5] = tested on: SA 29213 (Staphylococcus aureus (ATCC 29213)); assay: MIC; settings: ATCC29213, SA 29213, read-out: MIC
Protocol: as §1, §2

[6] = tested on: SA 33591 (Staphylococcus aureus, Methicillin Resistant (ATCC 33591)); assay: MIC; settings: ATCC33591, SA 33591, read-out: MIC
Protocol: as §1, §2

[7] = tested on: SA USA 300 (Methicillin-Resistant Staphylococcus aureus USA300); assay: MIC; settings: SA USA 300, read-out: MIC
Protocol: as §1, §2

E. faecium 145494 = assay: MIC; settings: Enterococcus faecium; E. faecium 145494; read-out: MIC
Protocol: (§3) The compounds were re-tested against other bacteria, including Staphylococcus epidermidis (ATCC 35984), Staphylococcus epidermidis (MRSE), E. faecium 134529, E. faecium 145494, […], E. faecium 161651, S. pneumoniae 49619, and S. pneumoniae 149389.
as §2

S. epidermidis 35984 = assay: MIC; settings: Staphylococcus epidermidis; S. epidermidis 35984; read-out: MIC
Protocol: as §3, §2

E. coli 25922 = assay: MIC; settings: Escherichia coli; E. coli 25922; read-out: MIC
E. coli ESBL 4 = assay: MIC; settings: Escherichia coli, ESBL4; E. coli ESBL 4; read-out: MIC
K. pneumoniae 700603 = assay: MIC; settings: Klebsiella pneumoniae; K. pneumoniae 700603; read-out: MIC
S. aureus strain 29213 = assay: Time-kill experiments; settings: for time-kill activity (cidal / static): 8 hrs; for reduction of bacterial counts / reduction of bacterial counts (killing): by 8 hours
Protocol: (§4) Two compounds (#880 and #169) were tested in time-kill assays against S. aureus strain 29213. These compounds were then used to attempt to select for resistant variants by passaging at sub-MIC concentrations for 20 passages.
Twenty mL of MH-II media warmed to 37° C. was seeded with log-phase growth S. aureus strain 29213 at 1×10^6 cfu/mL in 50 mL erlenmeyer shake-flasks. Compound was added at 2× and 4× the MIC value. Negative controls (no drug) and positive drug controls (vancomycin at 2× and 4× the MIC) were included in the experiment. Flasks were shaken at 200 rpm and 37° C. Samples were taken at the times indicated (0, 2, 4, 6, 8 and 24 hrs post inoculation) and bacterial loads were quantified by limiting dilution assay.

S. aureus ATCC 29213 = assay: Resistance passaging experiment; settings: Staphylococcus aureus
Protocol: as §4
The selected strain for this experiment was S. aureus ATCC 29213. A frozen glycerol stock was streaked onto MH-II agar and grown overnight at 37° C. The next day, 3-5 colonies were picked and grown in 3 mL of MH-II broth at 37° C. with 200 rpm shaking for approximately 4 hours. A 2-fold microdilution (in round-bottom, 96-well plates) was made for each compound being tested. CLSI guidelines for broth microdilution were followed. Using the bacteria grown from the overnight colonies, each microdilution was inoculated at a final concentration of 5×10^5 colony forming units (CFU)/mL. The microdilutions were incubated at 37° C. for 16 to 20 hours, after which the minimal inhibitory concentration (MIC) of each was read visually. The MIC is defined as the lowest concentration of compound resulting in no visible bacterial growth. This activity is recorded as the MIC at Passage 0. The contents of the well in the next dilution lower in concentration than the MIC (i.e., ½ the MIC) was mixed with a micropipette and 50 μL was transferred to 3 mL of fresh MH-II broth. This was grown at 37° C. with 200 rpm shaking for approximately 4 hours, at which time the sample was turbid. A 1 mL aliquot of this sample was added to a cryovial containing 300 μL of glycerol. This was marked as passage 1, vortexed, than placed in a −80° C. freezer for storage. The rest of the culture was adjusted to a bacterial concentration of 1×10^6cfu/mL (OD600 of 0.004), which was then used to inoculate a microdilution of the same compound (final bacterial concentration of 5×10^5 cfu/mL). This was incubated at 37° C. for 16 to 20 hours. After that time the MIC was once again read and recorded as the MIC at Passage 1. This process was repeated through 20 passages. Ciprofloxacin was included as a control and an untreated sample was also passaged 20 times as a negative control.

[8] = tested on: Staphylococcus aureus strains (ATCC 33591, USA300, 158, 22, 2, ATCC 29213, 182); assay: MIC screening of lead compounds against S. aureus strains; settings: including vancomycin and methicillin resistant strains
Source text: A series of lead compounds identified in the in vitro screening were subjected to in vivo screening, to determine their effectiveness against S. aureus. The strains included Staphylococcus aureus, Methicillin Resistant (ATCC 33591), Methicillin-Resistant Staphylococcus aureus USA300, Staphylococcus aureus 158, Staphylococcus aureus 22, Staphylococcus aureus 2, Staphylococcus aureus (ATCC 29213), and Staphylococcus aureus 182.

[9] = ATCC29213, read-out: MIC in S. aureus 29213, Passage 14, passaged at sub-MIC
[10] = ATCC29213, read-out: MIC in S. aureus 29213, Passage 15, passaged at sub-MIC
[11] = ATCC29213, read-out: MIC in S. aureus 29213, Passage 16, passaged at sub-MIC
[12] = ATCC29213, read-out: MIC in S. aureus 29213, Passage 17, passaged at sub-MIC
[13] = ATCC29213, read-out: MIC in S. aureus 29213, Passage 18, passaged at sub-MIC
[14] = ATCC29213, read-out: MIC in S. aureus 29213, Passage 19, passaged at sub-MIC
[15] = ATCC29213, read-out: MIC in S. aureus 29213, Passage 20, passaged at sub-MIC
[16] = ATCC29213, read-out: MIC in S. aureus 29213, second Passage 20 line of Table 4 (untreated culture passaged 20 times)

SMILES | MIC [1] | MIC [2] | MIC [3] | MIC [4] | MIC [5] | MIC [6] | MIC [7] | MIC (E. faecium 145494) | MIC (S. epidermidis 35984) | MIC (E. coli 25922) | MIC (E. coli ESBL 4) | MIC (K. pneumoniae 700603) | reduction of bacterial counts (S. aureus strain 29213; 2× the MIC) | time-kill activity (cidal / static) (S. aureus strain 29213; 4× the MIC) | reduction of bacterial counts (killing) (S. aureus strain 29213; 4× the MIC) | MIC (S. aureus ATCC 29213; [9]) | MIC (S. aureus ATCC 29213; [10]) | MIC (S. aureus ATCC 29213; [11]) | MIC (S. aureus ATCC 29213; [12]) | MIC (S. aureus ATCC 29213; [13]) | other results
Cc1ccc2nc(-c3ccc(NC(=O)CN4CCN(CCO)CC4)cc3)sc2c1 [Compound #169, 2-[4-(2-hydroxyethyl)-1-piperazinyl]-N-[4-(6-methyl-1,3-benzothiazol-2-yl)phenyl]acetamide] | 128 µg/mL (≈ 312 µM) | 16 µg/mL (≈ 39 µM) | 8 µg/mL (≈ 19.5 µM) | 16 µg/mL (≈ 39 µM) | 16 µg/mL (≈ 39 µM) | 32 µg/mL (≈ 77.9 µM) | 8 µg/mL (≈ 19.5 µM) | 16 µg/mL (≈ 39 µM) | 16 µg/mL (≈ 39 µM) | > 128 µg/mL | > 128 µg/mL | > 128 µg/mL | 1 log10 | static activity | 1 log10 | 32 µg/mL (≈ 77.9 µM) | 32 µg/mL (≈ 77.9 µM) | 32 µg/mL (≈ 77.9 µM) | 32 µg/mL (≈ 77.9 µM) | 32 µg/mL (≈ 77.9 µM) | time-kill activity (cidal / static) (S. aureus strain 29213; 2× the MIC): static activity; time-kill result by 24 hrs post treatment (S. aureus strain 29213; 2× the MIC, 24 hrs): regrowth of bacteria; MIC (S. aureus ATCC 29213; ATCC29213, read-out: MIC in S. aureus 29213, Passage 4, passaged at sub-MIC): 32 µg/mL (≈ 77.9 µM); MIC (S. aureus ATCC 29213; [14]): 32 µg/mL (≈ 77.9 µM); MIC (S. aureus ATCC 29213; [15]): 32 µg/mL (≈ 77.9 µM); MIC (S. aureus ATCC 29213; [16]): 32 µg/mL (≈ 77.9 µM); activity on types of S. aureus [8]: showed activity on all types of S. aureus
Brc1ccc(-c2nc(N3CCNCC3)c3ccccc3n2)cc1 [Compound #880, 2-(4-bromophenyl)-4-(1-piperazinyl)-quinazoline] | 8 µg/mL (≈ 21.7 µM) | 8 µg/mL (≈ 21.7 µM) | 4 µg/mL (≈ 10.8 µM) | 8 µg/mL (≈ 21.7 µM) | 8 µg/mL (≈ 21.7 µM) | 8 µg/mL (≈ 21.7 µM) | 8 µg/mL (≈ 21.7 µM) | 4 µg/mL (≈ 10.8 µM) | 8 µg/mL (≈ 21.7 µM) | 64 µg/mL (≈ 173 µM) | 64 µg/mL (≈ 173 µM) | > 128 µg/mL | 2.5 log10 | rapidly cidal | > 3 log10 | 16 µg/mL (≈ 43.3 µM) | 16 µg/mL (≈ 43.3 µM) | 16 µg/mL (≈ 43.3 µM) | 16 µg/mL (≈ 43.3 µM) | 16 µg/mL (≈ 43.3 µM) | bacterial counts by 24 hrs post treatment (S. aureus strain 29213; 4× the MIC, 24 hrs): below detectable levels; MIC (S. aureus ATCC 29213; ATCC29213, read-out: MIC in S. aureus 29213, Passage 8, passaged at sub-MIC): 16 µg/mL (≈ 43.3 µM); MIC (S. aureus ATCC 29213; ATCC29213, read-out: MIC in S. aureus 29213, Passage 10, passaged at sub-MIC): 16 µg/mL (≈ 43.3 µM); MIC (S. aureus ATCC 29213; ATCC29213, read-out: MIC in S. aureus 29213, Passage 11, passaged at sub-MIC): 16 µg/mL (≈ 43.3 µM); MIC (S. aureus ATCC 29213; ATCC29213, read-out: MIC in S. aureus 29213, Passage 12, passaged at sub-MIC): 16 µg/mL (≈ 43.3 µM); MIC (S. aureus ATCC 29213; ATCC29213, read-out: MIC in S. aureus 29213, Passage 13, passaged at sub-MIC): 16 µg/mL (≈ 43.3 µM); MIC (S. aureus ATCC 29213; [14]): 32 µg/mL (≈ 86.7 µM); MIC (S. aureus ATCC 29213; [15]): 32 µg/mL (≈ 86.7 µM); MIC (S. aureus ATCC 29213; [16]): 16 µg/mL (≈ 43.3 µM); activity on types of S. aureus [8]: showed activity on all types of S. aureus

Reference: patent US10316371B2, “Screening methods for identifying specific Staphylococcus aureus inhibitors” (TRANA DISCOVERY, INC., priority 2011, dated 2019)
